The source of these data is patent US11464770B2, “Anticancer pharmaceutical composition” (NATIONAL CANCER CENTER, priority 2016, dated 2022).

Read-outs that look alike come from different tables or passages of the source.

For assay [1], the system named is bladder cancer cell lines. The assay is described as follows: Cell based assay, cell viability (CellTiter-Glo), bladder cancer cell lines. The following applies: 72 hours treatment, 0 to 2 μM, CellTiter-Glo. On the procedure:
(§1) Commercially available bladder cancer, prostate cancer, lung cancer, breast cancer, blood cancer, pancreatic cancer, colorectal cancer, brain cancer, neuroblastoma, melanoma, liver cancer, cervical carcinoma, ovarian cancer, renal cancer, and papilloma cell lines were each treated with trypsin-EDTA and cultured, followed by being seeded in each well of a 96 well plate. After 24 hours of treatment at constant temperature, the respective cells were treated with the candidate compound so that a final concentration became 0 to 2 μM. The treated cells were additionally cultured for 72 hours, and cell viability was measured by using an ATP detection method (CellTiter-Glo® Luminescent Cell Viability Assay, Promega).

The test system of a further assay is melanoma cell lines. The assay is described as follows: Cell based assay, cell viability (CellTiter-Glo), melanoma cell lines. As to conditions: Homo sapiens; LOX-IMVI cell line. The method, then: as §1
Another assay concerns liver cancer cell lines. The assay is described as follows: Cell based assay, cell viability (CellTiter-Glo), liver cancer cell lines. The following applies: Homo sapiens, SK-HEP1; SK-HEP-1 cell line. The method, then: as §1
Setting [2] is: 253J cells, read-out: IC50, bladder cancer cell line 253J.
Setting [3] is: 5637 cells, read-out: IC50, bladder cancer cell line 5637.
Setting [4] is: Homo sapiens, T-24, T24 cells, read-out: IC50, bladder cancer cell line T24.
The mark [5] stands for this setting: Homo sapiens, UMUC3, UM-UC-3 cells, read-out: IC50, bladder cancer cell line UM-UC-3.
Where [6] appears, read: Homo sapiens, J82 cells, read-out: IC50, bladder cancer cell line J82.
[7] abbreviates: Homo sapiens, KU-19-19 cells, read-out: IC50, bladder cancer cell line KU-19-19.
Where [8] appears, read: MBT-2 cells, read-out: IC50, bladder cancer cell line MBT-2.

Take `CC(=O)c1c(S/C=C\C(=O)O)[nH]c2c(Br)ccc(Cl)c2c1=O` [Compound 67, (Z)-3-((3-acetyl-8-bromo-5-chloro-4-oxo-1,4-dihydroquinolin-2-yl)thio)acrylic acid]: the IC50 in assay [1] (setting [2]), in assay [1] (setting [3]), in assay [1] (setting [4]), in assay [1] (setting [5]), in assay [1] (setting [6]) and in assay [1] (setting [7]) was more than 2000 nM each time. Besides, the IC50 (in assay [1] (setting [8]); in the assay on melanoma cell lines; in the assay on liver cancer cell lines) was more than 2000 nM each time.

With `CC(=O)c1c([S+]([O-])Cc2ccc(N)nc2)[nH]c2c(Br)ccc(Cl)c2c1=O` (centres unmarked) [Compound 100, 3-acetyl-2-(((6-aminopyridin-3-yl)methyl)sulfinyl)-8-bromo-5-chloroquinolin-4(1H)-one], the IC50 (in assay [1] (setting [2]); in assay [1] (setting [3]); in assay [1] (setting [4]); in assay [1] (setting [6]); in the assay on melanoma cell lines; with liver cancer cell lines) was more than 2000 nM in each case.

Turning to `COc1ccccc1Sc1[nH]c2c(Br)ccc(Cl)c2c(=O)c1C(C)=O` [Compound 14, 3-acetyl-8-bromo-5-chloro-2-((2-methoxyphenyl)thio)quinolin-4(1H)-one], the IC50 in assay [1] (setting [2]), in assay [1] (setting [3]), in assay [1] (setting [4]), in assay [1] (setting [5]), in assay [1] (setting [6]) and in assay [1] (setting [7]) was more than 2000 nM throughout. The IC50 (in assay [1] (setting [8]); with melanoma cell lines; in the assay with liver cancer cell lines) was more than 2000 nM throughout.

On to `CSc1c(C(C)=O)c(=O)c2cc(F)ccc2n1C` [Compound 7, 3-acetyl-6-fluoro-1-methyl-2-(methylthio)quinolin-4(1H)-one], for which the IC50 in assay [1] (setting [2]), in assay [1] (setting [3]), in assay [1] (setting [4]), in assay [1] (setting [5]), in assay [1] (setting [6]) and in assay [1] (setting [7]) was more than 2000 nM in each case. Further, the IC50 (in assay [1] (setting [8]); in the assay on melanoma cell lines; in the assay on liver cancer cell lines) was more than 2000 nM in each case.

For the molecule `CC(=O)c1c(S(C)(=O)=O)n(S(=O)(=O)c2ccc(C(C)(C)C)cc2)c2c(Br)ccc(Cl)c2c1=O` [Compound 41, 3-acetyl-8-bromo-1-((4-(tert-butyl)phenyl)sulfonyl)-5-chloro-2-(methylsulfonyl)quinolin-4(1H)-one], the IC50 in assay [1] (setting [2]), in assay [1] (setting [3]), in assay [1] (setting [4]), in assay [1] (setting [5]), in assay [1] (setting [6]) and in assay [1] (setting [7]) was more than 2000 nM throughout. Also, the IC50 (in assay [1] (setting [8]); with melanoma cell lines; with liver cancer cell lines) was more than 2000 nM throughout.

For the molecule `CSc1[nH]c2c(Br)ccc(Cl)c2c(=O)c1C(C)=O` [Compound 2, 3-acetyl-8-bromo-5-chloro-2-(methylthio)quinolin-4(1H)-one], the IC50 in assay [1] (setting [2]), in assay [1] (setting [3]), in assay [1] (setting [4]), in assay [1] (setting [5]), in assay [1] (setting [6]) and in assay [1] (setting [7]) was more than 2000 nM in each case. In addition, the IC50 (in assay [1] (setting [8]); in the assay on melanoma cell lines; with liver cancer cell lines) was more than 2000 nM throughout.

Consider `CC(=O)c1c(S(=O)(=O)Cc2ccccc2)nc2c(Br)ccc(Cl)c2c1O` [Compound 54, 1-(2-(benzylsulfonyl)-8-bromo-5-chloro-4-hydroxyquinolin-3-yl)ethan-1-one], for which the IC50 (in assay [1] (setting [2]); in assay [1] (setting [3]); in assay [1] (setting [4]); in assay [1] (setting [6]); in assay [1] (setting [8]); with melanoma cell lines) was more than 2000 nM throughout. The IC50 in the assay with liver cancer cell lines was more than 2000 nM.

Regarding `CSc1c(C(C)=O)c(=O)c2c(Cl)ccc(Br)c2n1S(C)(=O)=O` [Compound 35, 3-acetyl-8-bromo-5-chloro-1-(methylsulfonyl)-2-(methylthio)quinolin-4(1H)-one], the half-inhibitory concentration (IC50) in assay [1] (setting [2]), in assay [1] (setting [3]), in assay [1] (setting [4]), in assay [1] (setting [5]), in assay [1] (setting [6]) and in assay [1] (setting [7]) was more than 2000 nM in each case. Moreover, the IC50 (in assay [1] (setting [8]); in the assay on melanoma cell lines; with liver cancer cell lines) was more than 2000 nM in each case.

Consider `CC(=O)c1c([S+]([O-])Cc2ccccc2)nc2c(Br)ccc(Cl)c2c1O` (centres unmarked) [Compound 53, 1-(2-(benzylsulfinyl)-8-bromo-5-chloro-4-hydroxyquinolin-3-yl)ethan-1-one], for which the IC50 (in assay [1] (setting [2]); in assay [1] (setting [3]); in assay [1] (setting [4]); in assay [1] (setting [6]); in the assay on melanoma cell lines; in the assay on liver cancer cell lines) was more than 2000 nM throughout.

On to `CC(=O)c1c([S+]([O-])CC#N)[nH]c2c(Br)ccc(Cl)c2c1=O` (centres unmarked) [Compound 65, 2-((3-acetyl-8-bromo-5-chloro-4-oxo-1,4-dihydroquinolin-2-yl)sulfinyl)acetonitrile], for which the IC50 in assay [1] (setting [2]), in assay [1] (setting [3]), in assay [1] (setting [4]), in assay [1] (setting [5]), in assay [1] (setting [6]) and in assay [1] (setting [7]) was more than 2000 nM in each case. In addition, the IC50 (in assay [1] (setting [8]); in the assay on melanoma cell lines; in the assay on liver cancer cell lines) was more than 2000 nM in each case.

On to `COc1cccc2[nH]c(SCc3ccc(S(F)(F)(F)(F)F)cc3)c(C(C)=O)c(=O)c12` [Compound 92, 3-acetyl-5-methoxy-2-((4-(pentafluoro--sulfanyl)benzyl)thio)quinolin-4(1H)-one], for which the IC50 in assay [1] (setting [2]), in assay [1] (setting [3]), in assay [1] (setting [4]), in assay [1] (setting [5]), in assay [1] (setting [6]) and in assay [1] (setting [7]) was more than 2000 nM in each case. Further, the 50% inhibitory concentration (IC50) (in assay [1] (setting [8]); with melanoma cell lines; in the assay on liver cancer cell lines) was more than 2000 nM in each case.

As to `CSc1c(C(C)=O)c(=O)c2c(Cl)ccc(Br)c2n1S(=O)(=O)c1ccc(C(C)(C)C)cc1` [Compound 40, 3-acetyl-8-bromo-1-((4-(tert-butyl)phenyl)sulfonyl)-5-chloro-2-(methylthio)quinolin-4(1H)-one], the IC50 in assay [1] (setting [2]), in assay [1] (setting [3]), in assay [1] (setting [4]), in assay [1] (setting [5]), in assay [1] (setting [6]) and in assay [1] (setting [7]) was more than 2000 nM each time. The IC50 (in assay [1] (setting [8]); with melanoma cell lines; with liver cancer cell lines) was more than 2000 nM each time.

As for `COc1ccccc1[S+]([O-])c1[nH]c2c(Br)ccc(Cl)c2c(=O)c1C(C)=O` (centres unmarked) [Compound 15, 3-acetyl-8-bromo-5-chloro-2-((2-methoxyphenyl)sulfinyl)quinolin-4(1H)-one], the IC50 (in assay [1] (setting [2]); in assay [1] (setting [3]); in assay [1] (setting [4]); in assay [1] (setting [6]); in the assay on melanoma cell lines; in the assay with liver cancer cell lines) was more than 2000 nM each time.

Turning to `CC(=O)c1c([S+](C)[O-])[nH]c2c(Cl)ccc(Cl)c2c1=O` (centres unmarked) [Compound 6, 3-acetyl-5,8-dichloro-2-(methylsulfinyl)quinolin-4(1H)-one], the IC50 in assay [1] (setting [2]) is 1220 nM; in assay [1] (setting [3]), 1690 nM; in assay [1] (setting [4]), 1420 nM; in assay [1] (setting [5]), 1460 nM; in assay [1] (setting [6]), more than 2000 nM; in assay [1] (setting [7]), more than 2000 nM. In addition, the figures for the half-maximal inhibitory concentration (IC50) (in assay [1] (setting [8]); with melanoma cell lines; in the assay with liver cancer cell lines) were 1440 nM, 1350 nM and 1380 nM, respectively.

As for `Cc1cc(C[S+]([O-])c2[nH]c3c(Cl)ccc(Cl)c3c(=O)c2C(=O)c2ccccc2)no1` (centres unmarked) [Compound 88, 3-benzoyl-5,8-dichloro-2-(((5-methylisoxazol-3-yl)methyl)sulfinyl)quinolin-4(1H)-one], the IC50 (in assay [1] (setting [2]); in assay [1] (setting [3]); in assay [1] (setting [4]); in assay [1] (setting [6]); in the assay with melanoma cell lines; in the assay on liver cancer cell lines) was more than 2000 nM in each case.

With `CC(=O)c1c(SCc2ccccc2)nc2c(Br)ccc(Cl)c2c1O` [Compound 52, 1-(2-(benzylthio)-8-bromo-5-chloro-4-hydroxyquinolin-3-yl)ethan-1-one], the IC50 in assay [1] (setting [2]), in assay [1] (setting [3]), in assay [1] (setting [4]), in assay [1] (setting [5]), in assay [1] (setting [6]) and in assay [1] (setting [7]) was more than 2000 nM throughout. Besides, the IC50 (in assay [1] (setting [8]); in the assay with melanoma cell lines; with liver cancer cell lines) was more than 2000 nM in each case.

For `CC(=O)c1c([S+]([O-])Cc2ccc(C(F)(F)F)o2)[nH]c2c(F)ccc(F)c2c1=O` (centres unmarked) [Compound 81, 3-acetyl-5,8-difluoro-2-(((5-(trifluoromethyl)furan-2-yl)methyl)sulfinyl)quinolin-4(1H)-one], the IC50 (in assay [1] (setting [2]); in assay [1] (setting [3]); in assay [1] (setting [4]); in assay [1] (setting [6]); in the assay with melanoma cell lines; with liver cancer cell lines) was more than 2000 nM each time.

In the case of `O=C(c1ccccc1)c1c([S+]([O-])Cc2ccc(S(F)(F)(F)(F)F)cc2)[nH]c2c(F)ccc(F)c2c1=O` (centres unmarked) [Compound 87, 3-benzoyl-5,8-difluoro-2-((4-(pentafluoro--sulfanyl)benzyl)sulfinyl)quinolin-4(1H)-one], the IC50 (in assay [1] (setting [2]); in assay [1] (setting [3]); in assay [1] (setting [4]); in assay [1] (setting [6]); in the assay with melanoma cell lines; in the assay on liver cancer cell lines) was more than 2000 nM each time.

Regarding `Cc1cc(C[S+]([O-])c2[nH]c3c(Cl)ccc(Cl)c3c(=O)c2C(=O)C2CC2)no1` (centres unmarked) [Compound 97, 5,8-dichloro-3-(cyclopropanecarbonyl)-2-(((5-methylisoxazol-3-yl)methyl)sulfinyl)quinolin-4(1H)-one], the IC50 is 1910 nM in assay [1] (setting [3]), more than 2000 nM in assay [1] (setting [6]), 1030 nM with melanoma cell lines and 1070 nM in the assay with liver cancer cell lines.

With `CSc1c(C(C)=O)c(=O)c2c(Cl)ccc(Br)c2n1S(=O)(=O)c1ccc([N+](=O)[O-])cc1` [Compound 38, 3-acetyl-8-bromo-5-chloro-2-(methylthio)-1-((4-nitrophenyl)sulfonyl)quinolin-4(1H)-one], the IC50 in assay [1] (setting [2]), in assay [1] (setting [3]), in assay [1] (setting [4]), in assay [1] (setting [5]), in assay [1] (setting [6]) and in assay [1] (setting [7]) was more than 2000 nM throughout. The IC50 (in assay [1] (setting [8]); in the assay on melanoma cell lines; with liver cancer cell lines) was more than 2000 nM throughout.
